Each structure is given as a SMILES string.

The text below walks through data of patent US7868023B2, “Thiophene sulfoximines, compositions thereof, and methods of treating complement-mediated diseases and conditions” (Janssen Pharmaceutica NV, priority 2005, dated 2011).

For one experiment, the target named is T1, activated human C1s (Homo sapiens, UniProt P09871).
T1 construct: purchased Calbiochem (La Jolla, Calif.)
T1 sequence (P09871 438-688 limits assumed): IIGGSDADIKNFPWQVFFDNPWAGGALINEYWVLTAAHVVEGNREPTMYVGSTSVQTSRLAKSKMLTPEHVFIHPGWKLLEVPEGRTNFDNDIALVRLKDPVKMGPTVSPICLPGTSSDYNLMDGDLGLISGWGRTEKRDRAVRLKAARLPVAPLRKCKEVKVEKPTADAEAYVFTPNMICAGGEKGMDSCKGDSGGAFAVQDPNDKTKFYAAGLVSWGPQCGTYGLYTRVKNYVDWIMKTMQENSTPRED
T1 sequence (P09871 16-437 limits assumed): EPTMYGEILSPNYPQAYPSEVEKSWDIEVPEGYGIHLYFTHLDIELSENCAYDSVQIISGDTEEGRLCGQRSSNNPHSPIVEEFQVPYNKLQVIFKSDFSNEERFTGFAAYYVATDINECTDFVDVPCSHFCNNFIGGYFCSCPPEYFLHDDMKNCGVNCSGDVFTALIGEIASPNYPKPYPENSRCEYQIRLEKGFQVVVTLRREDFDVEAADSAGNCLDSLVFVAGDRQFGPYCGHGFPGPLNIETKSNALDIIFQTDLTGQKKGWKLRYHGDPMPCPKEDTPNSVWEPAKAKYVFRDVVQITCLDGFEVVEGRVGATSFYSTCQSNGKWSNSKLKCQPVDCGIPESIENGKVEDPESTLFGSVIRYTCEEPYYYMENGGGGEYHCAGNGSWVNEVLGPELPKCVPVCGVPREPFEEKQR
As to the kind of experiment: In vitro inhibition of C1s (Ki determination, Z-Gly-Arg-S-Bzl hydrolysis, DTNB readout). Format: biochemical. As to conditions: substrate Z-Gly-Arg-S-Bzl 45 μM, 37° C., pH 7.5. An excerpt: Reagents: All buffer salts were obtained from Sigma Chemical Company (St. Louis, Mo.), and were of the highest purity available. DTNB was purchased from Pierce (Rockford, Ill.). Z-Gly-Arg-S-Bzl was purchased from Enzyme Systems Products (Livermore, Calif.). Activated human C1s was purchased from Calbiochem (La Jolla, Calif.).
Ki Determinations All assays were based on the ability of the test compound to inhibit the C1s-catalyzed hydrolysis of the substrate Z-Gly-Arg-S-Bzl, which was observed via a secondary reaction with 5,5′-dithio-bis(2-nitrobenzoic acid) (DTNB). […]
(§1) In a typical Ki determination, into each well of a 96-well plate was pipetted 280 μL of substrate solution, 10 μL of test compound solution, and the plate allowed to thermally equilibrate at 37° C. for 15 minutes. Reactions were initiated by the addition of a 10 μL aliquot of the enzyme, and the absorbance increase at 405 nm was continuously recorded for 15 minutes in a Molecular Devices plate reader. […] The ratio of the velocity (rate of change in absorbance as a function of time) for a sample containing no test compound was divided by the velocity of a sample containing test compound, and was plotted as a function of test compound concentration. The data were fit to a linear regression, and the value of the slope of the line calculated. The inverse of the slope was the experimentally determined Ki value.

A further experiment addresses T2, human MASP-2 (Homo sapiens, UniProt O00187).
T2 construct: His-tag; made in house; host or cells: Baculovirus expression system in insect cells
As to the kind of experiment: In vitro inhibition of MASP-2 (Ki determination, Z-Gly-Arg-S-Bzl hydrolysis, DTNB readout). The class given is biochemical. As to conditions: substrate Z-Gly-Arg-S-Bzl 45 μM, 37° C., pH 7.5; Ki app corrected for true Ki.
From the text: Reagents: All buffer salts were obtained from Sigma Chemical Company (St. Louis, Mo.), and were of the highest purity available. DTNB was purchased from Pierce (Rockford, Ill.). Z-Gly-Arg-S-Bzl was purchased from Enzyme Systems Products (Livermore, Calif.). Autoactivated 2-chain human MASP-2 (His-tag, Cys300-Phe686) was produced in-house from a Baculovirus expression system in insect cells.
Ki Determinations All assays were based on the ability of the test compound to inhibit the MASP-2-catalyzed hydrolysis of the substrate Z-Gly-Arg-S-Bzl, which was observed via a secondary reaction with 5,5′-dithio-bis(2-nitrobenzoic acid) (DTNB). […]
as §1, with “of substrate solution followed by 10 μL” for “of substrate solution, 10 μL”, “the plate was allowed to” for “the plate allowed to”, “C. for 10 minutes. Reactions” for “C. for 15 minutes. Reactions”, “line calculated. […]” for “line calculated. The inverse of the slope was the experimentally determined Ki value.”

T2 sequence (O00187 300-686): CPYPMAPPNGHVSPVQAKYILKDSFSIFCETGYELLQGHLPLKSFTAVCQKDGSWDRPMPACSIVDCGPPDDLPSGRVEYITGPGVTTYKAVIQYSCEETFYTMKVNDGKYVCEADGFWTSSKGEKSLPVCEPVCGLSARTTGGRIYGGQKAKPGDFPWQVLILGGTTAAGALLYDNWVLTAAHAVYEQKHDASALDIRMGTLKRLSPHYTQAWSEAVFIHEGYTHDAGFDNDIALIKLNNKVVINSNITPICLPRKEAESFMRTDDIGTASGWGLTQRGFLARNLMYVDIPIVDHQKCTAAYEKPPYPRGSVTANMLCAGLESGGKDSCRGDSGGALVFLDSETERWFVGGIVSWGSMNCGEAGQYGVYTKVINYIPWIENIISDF
T2 sequence (O00187 300-444): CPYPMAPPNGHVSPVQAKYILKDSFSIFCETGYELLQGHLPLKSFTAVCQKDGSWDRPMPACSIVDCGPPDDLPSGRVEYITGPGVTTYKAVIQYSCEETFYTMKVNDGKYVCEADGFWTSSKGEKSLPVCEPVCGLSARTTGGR

As for `CSc1sc(C(=N)N)cc1S(=O)(=NS(=O)(=O)c1cccc([N+](=O)[O-])c1)c1cccc(-c2ccc(NC(=N)N)cc2C)c1` (stereo not drawn) [Example 46, 4-[S-[3-(4-guanidino-6-methyl-phenyl)phenyl]-N-(3-nitrobenzene-sulfonyl)sulfoximino]-5-methylsulfanyl-thiophene-2-carboxamidine bistrifluoroacetate], the Ki at activated human C1s worked out at 10 nM. Take `CSc1sc(C(=N)N)cc1S(=O)(=NS(=O)(=O)c1cccc(NC(N)=O)c1)c1cccc(-c2c(C)cc(NC(=N)N)cc2N)c1` (stereo not drawn) [Example 18, 4-[S-[3-(2-Amino-4-guanidino-6-methyl-phenyl)phenyl]-N-(3-ureidobenzene-sulfonyl)sulfoxamino]-5-methylsulfanyl-thiophene-2-carboxamidine bistrifluoroacetate]: the Ki at activated human C1s worked out at 11 nM; at human MASP-2 it was 440 nM.
